# Measured values as given in patent publication US20050203059A1, “Methods and compositions for treatment of ischemia” (priority 2002, published 2005).
# Tested on: transient middle cerebral artery occlusion (MCAO) in SD rats
# Assay: Transient (90 min.) middle cerebral artery occlusion (MCAO) in SD rats
# Assay type: in vivo, rat
# Conditions: 90 min MCAO, 25 mg/kg intravenous bolus at occlusion, then 50 mg/kg subcutaneous repeatedly, histology at 3 days, FIG. 2
# Excerpt: 1. Transient focal cerebral ischemia: A rodent model of transient middle cerebral artery occlusion (MCA) occlusion was used to determine the effect of a representative GSK3 inhibitor compound of the invention, 6-[(2-{[6-(2,4-dichlorophenyl)-5-imidazolyl-2-pyridyl]amino}ethyl)amino]pyridine-3-carbonitrile (CT 99025) in the inhibition of ischemic damage due to stroke. Ischemia was induced using an occluding intraluminal suture model (M. A. Yenari et al., “Time-course and treatment response with SNX-111, an N-type calcium channel blocker, in a rodent model of focal cerebral ischemia using diffusion-weighted MRI,” Brain Res 739:3645 (1996)). Animals were anesthetized with 3% halothane (1-2% maintenance) via face mask. Depth of anesthesia was monitored every 15 minutes by checking toe pinch, and the maintenance halothane levels were adjusted accordingly. […] During the surgical procedure, the following parameters were monitored and maintained in the normal physiological range: mean arterial blood pressure (MABP, measured via a femoral artery catheter), respiratory rate, rectal temperature, heart rate, arterial blood gases, blood glucose, and hematocrit. […]
# 3. […] Regions without staining were delineated using a computer assisted image analysis program (MCID, St. Catherine's, Ottawa), and expressed as the percent injury of the ipsilateral hemisphere. […]
substance,measurement,value
"6-[(2-{[6-(2,4-dichlorophenyl)-5-imidazolyl-2-pyridyl]amino}ethyl)amino]pyridine-3-carbonitrile [CT 99025]",ischemic area (percent injury of the ipsilateral hemisphere) versus vehicle control,substantially reduced
